Tested on: Recombinant CHO cells expressing an IgG1
Experiment: Fed-batch process with SSC feed; relative quantification of trisulfide linked peptides in IgG by LC-MS peptide mapping
Type: cell-based
Conditions: for mean reduction of trisulfide, LC-HC linked peptides: SSC feed (15 mM in main feed) compared to control condition with cysteine in separate feed; for mean reduction of trisulfide, linkage between cysteine 259 and cysteine 319 in the heavy chain: SSC feed compared to control condition with cysteine in separate feed
Description: Recombinant CHO cells expressing an IgG1 were grown in fully chemically defined basal media (Cellvento® CHO 220) containing 1.5 mM cysteine. At days 3, 5, 7, 10, 14; feed(s) containing either cysteine or S-sulfocysteine were added.
For the control condition, the main feed included vitamins, trace elements and amino acid except cysteine because of the low stability of this amino acid. 150 mM of cysteine was dissolved in a separate feed at pH 11. The main feed was added at 3%, 6%, 6%, 6% and 6% (v/v) whereas cysteine was added at 0.3%, 0.6%, 0.6%, 0.6% and 0.6% on day 3, 5, 7, 10 and 14, respectively.
For the SSC condition, the main feed included the same vitamins, trace elements and amino acids and was further supplemented with 15 mM of S-sulfocysteine di-sodium salt. The main feed was added 3%, 6%, 6%, 6% and 6% (v/v) day 3, 5, 7, 10 and 14 respectively, resulting in the same amount of cysteine source when compared to the control condition. Glucose was monitored on a daily basis for both conditions and adjusted to 6 g/L using a 400 g/L solution.
The process was performed in 1.2 L bioreactors at 37° C., pH 7.0, 50% dissolved oxygen, agitation 140 rpm.
Samples were taken from the bioreactors for the trisulfide analysis on day 13 and day 18. After sampling, cell culture supernatant was centrifuged 5 min at 1500 rpm, the IgG concentration was quantified using an automatic turbidometric method (Cedex bioHT) and frozen for further processing.
IgG were purified from the frozen samples using protein A binding (Phytips method) and were eluted in 200 mM NAH2PO4; 140 mM NaCl and 96 mM Tris HCl and quantified again.
First, the free cysteines in the samples were alkylated by addition of N-ethylmaleiimide (10 mM solution in 0.1 M Na acetate buffer pH 5.0) for 30 min in the dark.
For digestion with Lys-C, 55 μL digestion buffer (8 M urea, 0.1 M Tris, pH 7) and 15 μL Lys-C enzyme (Promega, V1671) were added and the samples were incubated for 4 hours at 37° C. Subsequently, the samples were diluted to 1 M urea by addition of […] and were digested by addition of 12 μL trypsin over night at 37° C. The final antibody concentration was 50 mg/L. For the analysis of the disulfide and trisulfide bonds, the sample was treated with 10% formic acid (4.4 μL) to stop the digestion and analyzed by LC-MS.
The peptide mixture obtained was injected and separated using reversed phase HPLC (RSLC3000 nano LC, Thermo Scientific Dionex, Idstein, Germany). A nanoLC column (Acquity UPLC M-Class HSS T3, 1.8 μm, 75 μm×150 mm, Waters) with a cartridge (PM100, C18, 5 μm, 0.3×5 mm, Thermo Scientific Dionex, Idstein, Germany) was used for preconcentration and separation of the sample. Blank runs and column wash runs were performed within consecutive sample runs. […]

## N[C@@H](CSS(=O)(=O)[O-])C(=O)[O-].[Na+].[Na+] [SSC, S-sulfocysteine di-sodium salt]
Day 13 of fed-batch
  mean reduction of trisulfide, LC-HC linked peptides: 93.3%
  mean reduction of trisulfide, linkage between cysteine 259 and cysteine 319 in the heavy chain: 46.7%
Day 18 of fed-batch
  mean reduction of trisulfide, LC-HC linked peptides: 92.4%
  mean reduction of trisulfide, linkage between cysteine 259 and cysteine 319 in the heavy chain: 25.9%
